Peptide text beside a SMILES is read from it. * marks the point of attachment. Cbz = O=C(OCc1ccccc1)*; CH2Cl = ClC*
How the values were obtained:
A-431 cell EGF receptor = target: T1, A-431 cell EGF receptor (Homo sapiens, UniProt P00533); test: Protein phosphorylation of A-431 cell membrane EGF receptors (intact membranes, EGF present); type: biochemical; conditions: 600 nmoles/mg protein, intact A-431 membranes
T1 construct: intact A-431 cell membranes were employed, rather than solubilized extracts; endogenous in cells; host or cells: A-431 human epidermoid carcinoma cells (plasma membranes)
T1 sequence (P00533 25-1210): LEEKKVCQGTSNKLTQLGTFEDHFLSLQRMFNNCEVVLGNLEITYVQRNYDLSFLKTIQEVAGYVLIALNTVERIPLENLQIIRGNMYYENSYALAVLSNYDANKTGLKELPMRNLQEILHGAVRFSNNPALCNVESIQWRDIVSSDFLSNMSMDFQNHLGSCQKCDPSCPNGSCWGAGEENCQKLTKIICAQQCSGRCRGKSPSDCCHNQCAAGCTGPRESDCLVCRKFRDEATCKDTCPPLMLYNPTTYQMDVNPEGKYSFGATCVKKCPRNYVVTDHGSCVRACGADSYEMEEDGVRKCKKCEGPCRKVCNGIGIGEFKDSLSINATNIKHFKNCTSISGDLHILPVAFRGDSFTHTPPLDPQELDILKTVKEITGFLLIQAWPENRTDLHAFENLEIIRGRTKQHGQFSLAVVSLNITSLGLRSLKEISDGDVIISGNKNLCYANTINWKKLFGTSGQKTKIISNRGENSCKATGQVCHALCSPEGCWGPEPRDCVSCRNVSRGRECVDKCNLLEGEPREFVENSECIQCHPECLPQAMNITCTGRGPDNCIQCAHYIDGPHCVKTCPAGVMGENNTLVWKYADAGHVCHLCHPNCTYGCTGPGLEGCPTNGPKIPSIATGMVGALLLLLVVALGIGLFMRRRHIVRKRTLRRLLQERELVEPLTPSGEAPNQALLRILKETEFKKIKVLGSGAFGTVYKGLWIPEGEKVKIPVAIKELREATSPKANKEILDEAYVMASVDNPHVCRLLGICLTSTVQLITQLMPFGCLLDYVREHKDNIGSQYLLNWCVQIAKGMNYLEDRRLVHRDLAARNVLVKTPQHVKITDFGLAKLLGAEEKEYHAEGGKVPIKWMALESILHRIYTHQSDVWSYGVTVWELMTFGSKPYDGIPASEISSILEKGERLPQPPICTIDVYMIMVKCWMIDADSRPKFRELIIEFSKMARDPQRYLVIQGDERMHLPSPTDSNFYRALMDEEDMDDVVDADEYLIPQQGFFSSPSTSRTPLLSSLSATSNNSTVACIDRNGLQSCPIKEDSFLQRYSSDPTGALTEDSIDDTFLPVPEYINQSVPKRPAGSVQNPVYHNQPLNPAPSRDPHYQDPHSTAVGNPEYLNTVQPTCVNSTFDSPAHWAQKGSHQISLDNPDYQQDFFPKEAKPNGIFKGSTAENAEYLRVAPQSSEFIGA
Method: (§1) Protein phosphorylation assays were conducted substantially as described by Carpenter et al., J. Biol. Chem. 254:4884 (1979). Each assay mixture contained, in a final volume of 70 μL: 20 mM Hepes, pH 7.4, 0.01% bovine serum albumin (BSA), 15-150 μg protein in Triton extract, 100 ng EGF, 1 mM MnCl2 and 10-20 μM [γ-^32 P] ATP (2-4 μCi). Peptide halomethyl ketones were added as solutions in ethanol; an equivalent volume of ethanol was added to controls. Assay mixtures were incubated at about 23° for ten minutes, with or without added EGF. Mixtures were then held at 0° for ten minutes before initiation of phosphorylation by addition of 15 μM γ-^32 P) ATP (2 μCi). Reactions were terminated after 3 minutes at 0° by applying an aliquot of the assay mixture to a Whatman 3MM filter paper (2×2 cm), which was then suspended in ice-cold 10% trichloroacetic acid containing 10 mM pyrophosphate. This suspension was gently shaken for a period of 1 hour, during which the trichloroacetic acid/pyrophosphate mixture was changed three times. Finally, the filter papers were dried and radioactivity measured by scintillation counting.
Assays were conducted substantially as described above, except intact A-431 cell membranes were employed, rather than solubilized extracts, and assay mixtures contained 1 mM ouabain. In these Examples, reactions were permitted to proceed for 6 minutes. This technique is substantially similar to that disclosed by Navarro et al., Biochemistry, 21:6138 (1982).

lymphoma cell line YAC-1 = test: Tumor cell line growth inhibition, YAC-1; type: cell-based
Method: (§2) In this series of experiments, the tumor cell growth inhibitory capacity of various peptide halomethyl ketones was tested against lymphoma cell lines YAC-1 and MOLT-4, and against an erythroleukemia cell line, K-562. The lymphoma cell line YAC-1 is described by Kiessling, et al., Eur. J. Immunol. 5:112 (1975), and MOLT-4 is described by Minowada, et al., J. Natl. Cancer Inst. 49:891 (1972) and Nilsson, et al., Int. J. Cancer 15:321 (1975). The erythroleukemia cell line K-562 is described by Lozzio, et al., Leuk. Res. 3:363 (1979). In these experiments, cells were grown on standard media as 10 mL suspension cultures. Initial cell density was 10^5 cells/mL. At day 0, test compounds were introduced in ethanol; control cultures received an equal volume of ethanol. Cells were counted at the times indicated.

[1] = test system: lymphoma cell line MOLT-4; test: Tumor cell line growth inhibition, MOLT-4; type: cell-based
Method: as §2

[2] = test system: erythroleukemia cell line K-562; test: Tumor cell line growth inhibition, K-562; type: cell-based
Method: as §2

[3] = test system: A-431 plasma membrane extracts (EGF-mediated protein phosphorylation); test: Protein phosphorylation in solubilized A-431 plasma membrane extracts, with or without EGF; type: biochemical, human; conditions: 477 nmol/mg protein; for EGF Added (pmol 32P incorporated/min/mg protein): control 96.2; for No EGF Added (pmol 32P incorporated/min/mg protein): control 21.6
Method: The capacity of certain peptide halomethyl ketones to inhibit protein phosphorylation is illustrated by Examples 1-8, below, in which solubilized plasma membranes prepared from A-431 human epidermoid carcinoma cells were incubated with [γ-^32 P] ATP in the presence of EGF.
A-431 human epidermoid carcinoma cells were grown in Dulbecco's modified Eagle's medium containing 5% fetal calf serum. Plasma membranes were isolated by a method substantially similar to that described by Thom et al., Biochem J. 168:187 (1977), and kept at -70°. Solubilization of plasma membranes was performed substantially as described by Cohen et al., J. Biol. Chem. 255:4834 (1980). In this procedure, 7.5 mg/mL protein was solubilized with 5% Triton X-100 (octylphenol), 10% glycerol, and 20 mM Hepes buffer (N-2-hydroxyethylpiperazine-N^1 -2-ethanesulfonic acid), pH 7.4. This mixture was incubated for 20 minutes at about 23°, followed by centrifugation at 100,000 xg for 60 minutes.
as §1

SMILES | % inhibition (A-431 cell EGF receptor) | % Growth Relative to Control Cultures ([1]; 0.4 μg/mL, day 2) | % Growth Relative to Control Cultures ([1]; 2.0 μg/mL, day 2) | % Growth Relative to Control Cultures ([1]; 10. μg/mL, day 1) | % Growth Relative to Control Cultures ([1]; 10. μg/mL, day 2) | % Growth Relative to Control Cultures ([1]; 10. μg/mL, day 3) | % Growth Relative to Control Cultures ([1]; 10. μg/mL, day 4) | % Growth Relative to Control Cultures ([1]; 10. μg/mL, day 7) | % Growth Relative to Control Cultures ([2]; 2.0 μg/mL, day 2) | % Growth Relative to Control Cultures ([2]; 10. μg/mL, day 1) | % Growth Relative to Control Cultures ([2]; 10. μg/mL, day 2) | % Growth Relative to Control Cultures ([2]; 10. μg/mL, day 3) | % Growth Relative to Control Cultures ([2]; 10. μg/mL, day 4) | % Growth Relative to Control Cultures ([2]; 10. μg/mL, day 7) | % Growth Relative to Control Cultures ([1]; 0.4 μg/mL, day 1) | % Growth Relative to Control Cultures ([1]; 2.0 μg/mL, day 1) | % Growth Relative to Control Cultures ([1]; 2.0 μg/mL, day 3) | % Growth Relative to Control Cultures ([1]; 2.0 μg/mL, day 4) | % Growth Relative to Control Cultures ([2]; 2.0 μg/mL, day 1) | % Growth Relative to Control Cultures ([2]; 2.0 μg/mL, day 3) | also measured
CC(C)C[C@H](NC(=O)[C@H](C)NC(=O)[C@H](CO)NC(=O)[C@H](Cc1ccccc1)NC(=O)OCc1ccccc1)C(=O)CCl [Z--Phe-Ser-Ala-LeuCH2 Cl, Z-Phe-Ser-Ala-LeuCH2 Cl] (Cbz-FSAL-CH2Cl) | 44% | 80% | 85% | 64% | 16% | 4% | 2% | 11% | 72% | 44% | 4% | 2% | 4% | 7% |  |  |  |  |  |  | % Growth Relative to Control Cultures (lymphoma cell line YAC-1; 0.4 μg/mL, day 1): 58%; % Growth Relative to Control Cultures (lymphoma cell line YAC-1; 0.4 μg/mL, day 2): 49%; % Growth Relative to Control Cultures (lymphoma cell line YAC-1; 2.0 μg/mL, day 1): 53%; % Growth Relative to Control Cultures (lymphoma cell line YAC-1; 2.0 μg/mL, day 2): 53%; % Growth Relative to Control Cultures (lymphoma cell line YAC-1; 2.0 μg/mL, day 7): 76%; % Growth Relative to Control Cultures (lymphoma cell line YAC-1; 10. μg/mL, day 1): 63%; % Growth Relative to Control Cultures (lymphoma cell line YAC-1; 10. μg/mL, day 2): 21%; % Growth Relative to Control Cultures (lymphoma cell line YAC-1; 10. μg/mL, day 3): 16%; % Growth Relative to Control Cultures (lymphoma cell line YAC-1; 10. μg/mL, day 4): 16%; % Growth Relative to Control Cultures (lymphoma cell line YAC-1; 10. μg/mL, day 7): 17%; % Growth Relative to Control Cultures ([2]; 0.4 μg/mL, day 1): 82%; % Growth Relative to Control Cultures ([2]; 0.4 μg/mL, day 2): 66%
CC(C)(C)OC(=O)N[C@@H](Cc1ccc(O)cc1)C(=O)CCl [Boc-TyrCH2 Cl] | 34% |  | 31% | 39% | 19% | 8% | 3% | 0% | 23% | 64% | 7% | 2% | 2% | 0% | 80% | 56% | 17% | 16% | 81% | 15% | % inhibition, EGF Added [3]: 45%; EGF Added (pmol 32P incorporated/min/mg protein) [3]: 53.0 pmol^32 P incorporated/min/mg; % inhibition, No EGF Added [3]: 64%; No EGF Added (pmol 32P incorporated/min/mg protein) [3]: 7.8 pmol^32 P incorporated/min/mg; % Growth Relative to Control Cultures ([1]; 0.4 μg/mL, day 3): 85%; % Growth Relative to Control Cultures ([1]; 0.4 μg/mL, day 4): 69%; % Growth Relative to Control Cultures ([1]; 2.0 μg/mL, day 7): 31%; % Growth Relative to Control Cultures ([2]; 2.0 μg/mL, day 4): 19%; % Growth Relative to Control Cultures ([2]; 2.0 μg/mL, day 7): 44%
CC(C)C[C@H](NC(=O)[C@H](CO)NC(=O)CNC(=O)[C@H](Cc1ccccc1)NC(=O)OCc1ccccc1)C(=O)CCl [Z--Phe-Gly-Ser-LeuCH2 Cl, Z-Phe-Gly-Ser-LeuCH2 Cl] (Cbz-FGSL-CH2Cl) | 54% | 40% | 27% | 38% | 17% | 76% | 29% | 49% | 13% |  | 14% | 17% | 20% | 65% | 77% | 42% | 87% | 74% | 66% | 38% | % Growth Relative to Control Cultures (lymphoma cell line YAC-1; 0.4 μg/mL, day 2): 63%; % Growth Relative to Control Cultures (lymphoma cell line YAC-1; 0.4 μg/mL, day 3): 68%; % Growth Relative to Control Cultures (lymphoma cell line YAC-1; 0.4 μg/mL, day 4): 74%; % Growth Relative to Control Cultures (lymphoma cell line YAC-1; 0.4 μg/mL, day 7): 61%; % Growth Relative to Control Cultures (lymphoma cell line YAC-1; 2.0 μg/mL, day 2): 80%; % Growth Relative to Control Cultures (lymphoma cell line YAC-1; 2.0 μg/mL, day 3): 60%; % Growth Relative to Control Cultures (lymphoma cell line YAC-1; 2.0 μg/mL, day 4): 66%; % Growth Relative to Control Cultures (lymphoma cell line YAC-1; 2.0 μg/mL, day 7): 75%; % Growth Relative to Control Cultures (lymphoma cell line YAC-1; 10. μg/mL, day 1): 62%; % Growth Relative to Control Cultures (lymphoma cell line YAC-1; 10. μg/mL, day 2): 40%; % Growth Relative to Control Cultures (lymphoma cell line YAC-1; 10. μg/mL, day 4): 40%; % Growth Relative to Control Cultures (lymphoma cell line YAC-1; 10. μg/mL, day 7): 64%; % Growth Relative to Control Cultures ([2]; 0.4 μg/mL, day 2): 28%; % Growth Relative to Control Cultures ([2]; 0.4 μg/mL, day 3): 27%; % Growth Relative to Control Cultures ([2]; 0.4 μg/mL, day 4): 49%; % Growth Relative to Control Cultures ([2]; 0.4 μg/mL, day 7): 81%; % Growth Relative to Control Cultures ([2]; 2.0 μg/mL, day 4): 40%
CC(C)C[C@H](NC(=O)OC(C)(C)C)C(=O)CCl [Boc-LeuCH2 Cl] | 7% | 86% | 28% |  | 38% | 3% | 3% | 4% | 31% | 8% | 17% | 3% | 6% | 3% | 73% | 47% | 10% | 11% | 17% | 8% | % inhibition, EGF Added [3]: 28%; EGF Added (pmol 32P incorporated/min/mg protein) [3]: 69.0 pmol^32 P incorporated/min/mg; % inhibition, No EGF Added [3]: 48%; No EGF Added (pmol 32P incorporated/min/mg protein) [3]: 11.3 pmol^32 P incorporated/min/mg; % Growth Relative to Control Cultures ([1]; 0.4 μg/mL, day 3): 73%; % Growth Relative to Control Cultures ([1]; 0.4 μg/mL, day 7): 86%; % Growth Relative to Control Cultures ([1]; 2.0 μg/mL, day 7): 63%; % Growth Relative to Control Cultures ([2]; 0.4 μg/mL, day 1): 47%; % Growth Relative to Control Cultures ([2]; 0.4 μg/mL, day 3): 53%; % Growth Relative to Control Cultures ([2]; 2.0 μg/mL, day 4): 15%; % Growth Relative to Control Cultures ([2]; 2.0 μg/mL, day 7): 37%
